Test results: patent US6559158B1, “Use of methylnaltrexone and related compounds to treat chronic opioid use side affects” (UR Labs, Inc., priority 1997, dated 2003)
“And” between values parts separate entries of the source, which are not always exact repeats. Equal entries are not always repeated. “Also recorded” adds a separate entry of the source.

What was measured:
[1] = Example 1: peak plasma methylnaltrexone level (HPLC); assay type: in vivo, human
Experimental: (§1) After each test drug administration, seven blood samples (5 ml each) were obtained at time 0, 5, 30 min, and 1, 2, 4, 8 h, and three urine samples were collected at time 0, 2, and 4 h. Plasma and urine methylnaltrexone levels were determined by an HPLC technique with a detection limit of 2 ng/ml (Kim et al., 1989; Yuan et al., Clin. Pharmacol Ther., 59:469-475 (1996); both herein incorporated by reference). […] Subjects' bowel movements were witnessed and recorded by a research nurse.

[2] = intravenous; cited from earlier work
[3] = test system: morphine-induced changes in oral-cecal transit time; test: Example 4: morphine-induced delay of oral-cecal transit time in subjects given opioids non-chronically; assay type: in vivo, human; conditions: 0.45 mg/kg methylnaltrexone plus 0.05 mg/kg morphine
Experimental: After completion of the above three injections, we asked six of the subjects, beginning with those who had completed the study last, to return for a fourth injection (0.45 mg/kg methylnaltrexone plus 0.1 mg/kg morphine). This was done to evaluate the effects of methylnaltrexone with a higher does of morphine.
Results of the hydrogen breath test after different injections were analyzed with the use of the Wilcoxon matched-pairs signed-rank test, with p<0.05 considered to be statistically significant.

[4] = test system: chronic methadone subjects; test: Example 2: oral-cecal transit time (lactulose hydrogen breath test); assay type: in vivo, human
Experimental: The oral-cecal transit time was assessed by the pulmonary hydrogen (H2) measurement technique, which measures pulmonary H2 that is produced when unabsorbed lactulose is fermented by colonic bacteria and excreted in the breath. This H2 production is reflected by a concomitant increase in breath H2 excretion. […] Dis. Sci., 32:829-832 (1987)). Hydrogen breath tests were conducted every 15 min until oral-cecal transit time was determined.
The oral-cecal transit time was assessed as in Example 1.

[5] = test system: chronic methadone subjects with methadone-induced constipation; test: Example 1: intravenous methylnaltrexone, laxation response and stool frequency in methadone maintenance subjects; assay type: in vivo, human; conditions: for Stool frequency Methylnaltrexone (per day): during iv methylnaltrexone treatment
Experimental: Methylnaltrexone dose of 0.45 mg/kg was chosen to start this trial because this dose was previously given in normal volunteers and prevented opioid-induced delay of the oral-cecal transit time without any side effects (Yuan et al., Clin. Pharmacol Ther., 59:469-475 (1996)). Drug administration was performed single blind to the subjects in this pilot study. Thus, methylnaltrexone dose could be adjusted based on subjects' clinical response during the study.
All four subjects received placebo (normal saline) on Day 1. Thereafter, subjects received intravenous methylnaltrexone until the end of the study.
On Day 2 at 09:00 hours (h), Subjects 1 and 2 were given 0.45 mg/kg intravenous methylnaltrexone over 1 min. Subject 2 experienced severe abdominal cramps after receiving the compound and was withdrawn from the study. […] Beginning on Day 4, the study was resumed for Subject 1 using 0.45 mg/kg of methylnaltrexone, diluted with 50 ml normal saline and administered over 30 min. Infusion could be stopped at any time for complaints of abdominal pain.
For Subjects 3 and 4, the study was shortened from 8 to 5 days, methylnaltrexone dosage was decreased, and a new, three-step dosing procedure was established. Methylnaltrexone 0.05 mg/kg, mixed in 30 ml normal saline (first syringe), was infused intravenously over 10 min. The subject was then observed 10 min for drug response. If there was no response, then methylnaltrexone 0.1 mg/kg (second syringe), mixed in 30 ml normal saline, was infused over 15 min. Subject was observed 15 min for drug response. If there was no response, then methylnaltrexone 0.3 mg/kg (third syringe), mixed in 30 ml normal saline, was infused over 15 min.
as §1

normal volunteers = conditions: 0.45 mg/kg iv, cited from earlier work
[6] = test system: chronic methadone subjects; test: Example 3: oral methylnaltrexone, opioid withdrawal and adverse effects; conditions: oral 0.3-3.0 mg/kg
Experimental: (§2) Since oral medication is a safer and more convenient way to deliver drugs than is intravenous administration, the efficacy of oral MNTX in relieving constipation in methadone maintained patients was evaluated. Twelve constipated adults (≦2 stool/week) were enrolled. Their daily methadone dose was 73.3±16.2 mg (41-100 mg), mean±SD (range). On day 1 at 9AM, subjects ingested 10 g lactulose (Solvay Pharmaceuticals) to assess oral-cecal transit time as described above, and a placebo capsule. On day 2 at 9AM, subjects again received lactulose, and a capsule containing methylnaltrexone (Mallinckrodt). Ascending oral methylnaltrexone doses (0.3, 1.0, and 3,0 mg/kg) were given to 3 groups of 4 subjects per group. Drug administrations were single-blinded to the subject. Laxation response and potential opioid withdrawal were recorded and blood samples were collected.

[7] = test system: chronic methadone subjects with methadone-induced constipation; test: Example 2: double-blind placebo-controlled trial of intravenous methylnaltrexone, laxation response; conditions: for methylnaltrexone dose received (infusion stopped at bowel movement): mean±SD, range 0.01-0.37
[8] = Example 4: pharmacokinetics of 0.45 mg/kg intravenous methylnaltrexone; conditions: per subject (1-12) and Mean ± SD
Experimental: Sessions were separated by at least 1 week. Each session lasted approximately 7 hours, and the subjects received one of three injections: (1) placebo plus placebo, (2) placebo plus 0.05 mg/kg morphine, or (3) 0.45 mg/kg methylnaltrexone plus 0.05 mg/kg morphine. Injection I was given at the first session, and the subjects were blinded to the medication. Injections 2 and 3 were given in a random order, and the subjects and observers were blinded to the medication. Injection assignments were prepared by random selection on a computer and were sealed in envelopes.

[9] = Example 3: plasma level after oral methylnaltrexone
Experimental: as §2

[10] = Example 2: plasma levels and urinary excretion of methylnaltrexone; assay type: in vivo, human; conditions: for Peak plasma level: iv, mean±SD
Experimental: as §1
Blood and Urine Sampling and Analysis were Performed as in Example 1.

C[N@+]1(CC2CC2)CC[C@]23c4c5ccc(O)c4O[C@H]2C(=O)CC[C@@]3(O)[C@H]1C5 [methylnaltrexone, N-methylnaltrexone bromide]
Peak plasma methylnaltrexone level ([1]; Subject 1, 0.45 mg/kg iv): 1.65 µg/mL
Peak plasma methylnaltrexone level ([1]; Subject 2, 0.45 mg/kg iv): 1.10 µg/mL
Peak plasma methylnaltrexone level ([1]; Subject 3, 0.05-0.15 mg/kg iv): 0.25 µg/mL
Peak plasma methylnaltrexone level ([1]; Subject 4, 0.05-0.15 mg/kg iv): 0.53 µg/mL
elimination half-life [2]: approximately 2 h
oral-cecal transit time ([3]; 12 subjects, mean±SD, not significant vs baseline 104.6±31.1): 106.3 ± 39.8 min
prevention of morphine-induced changes in oral-cecal transit time ([3]; p<0.01 vs morphine alone): 97%
oral-cecal transit time after study drug ([4]; methylnaltrexone group n=11, Day 2, iv, mean±SD, range 30-105, baseline 132.3±36.0): 54.5 ± 19.3 min
average change in oral-cecal transit time from baseline ([4]; methylnaltrexone group n=11, P<0.001 vs placebo group): -77.7 ± 37.2 min
Laxation response ([5]; Subjects 1 and 2, 0.45 mg/kg iv): immediate positive Taxation
Laxation response ([5]; Subjects 3 and 4, 0.05-0.15 mg/kg iv twice daily for 4 consecutive days): immediate laxation response
Stool frequency Methylnaltrexone (per day) ([5]; #1 0.45 mg/kg bid, #2 0.45 mg/kg, #3 and #4 0.05-0.15 mg/kg bid, iv methylnaltrexone 0.45 mg/kg): 1 per day
Stool frequency Methylnaltrexone (per day) ([5]; #1 0.45 mg/kg bid, #2 0.45 mg/kg, #3 and #4 0.05-0.15 mg/kg bid, iv methylnaltrexone 0.05-0.15, bid mg/kg): 2 per day
Stool frequency Methylnaltrexone (per day) ([5]; #1 0.45 mg/kg bid, #2 0.45 mg/kg, #3 and #4 0.05-0.15 mg/kg bid, iv methylnaltrexone 0.05-015, bid mg/kg): 1.3 per day
Stool frequency Methylnaltrexone (per day) ([5]; #1 0.45 mg/kg bid, #2 0.45 mg/kg, #3 and #4 0.05-0.15 mg/kg bid, iv methylnaltrexone 0.45, bid mg/kg): 1.5 per day
stool frequency during the treatment period ([5]; four subjects, iv methylnaltrexone, 1-2 times per week before the study): approximately 1.5 stool per day
Laxation response ([5]; iv methylnaltrexone, #1 0.45 mg/kg bid, #2 0.45 mg/kg, #3 and #4 0.05-0.15 mg/kg bid): Immediate
effect on opioid-induced delay in oral-cecal transit time (normal volunteers; healthy volunteers, acute single doses): effectively prevented opioid-induced delay in oral-cecal transit time
effect on analgesia (normal volunteers; healthy volunteers): without affecting analgesia
Laxation response (normal volunteers; normal opioid naive subjects): without any laxation response
opioid withdrawal ([6]; any subjects): no opioid withdrawal
abdominal cramping ([6]; most subjects): very mild abdominal cramping
adverse effects [6]: no adverse effects were reported
methylnaltrexone dose received (infusion stopped at bowel movement) ([7]; Day 1, iv): 0.09 ± 0.10 mg/kg
methylnaltrexone dose received (infusion stopped at bowel movement) ([7]; Day 2, iv): 0.10 ± 0.10 mg/kg
Bowel movement Satisfaction ([7]; MNTX group, end of study, listed as MNTX): Very satisfied; also recorded: Somewhat satisfied
satisfaction with bowel movement activity at the end of the study ([7]; methylnaltrexone group): all 11 subjects were satisfied
subjects whose stool was soft to loose and in large quantity ([7]; methylnaltrexone group): over 90%
AUC ([8]; human, in vivo, iv, 0.45 mg/kg, AUC, area under the plasma concentration-time curve from 0 to 6 hours): 549 ng·h/mL
AUC, area under the plasma concentration-time curve from 0 to 6 hours [8]: 694 ng·h/mL and 595 ng·h/mL and 637 ng·h/mL and 588 ng·h/mL and 1013 ng·h/mL and 634 ng·h/mL and 587 ng·h/mL and 747 ng·h/mL and 677 ng·h/mL and 742 ng·h/mL and 658 ng·h/mL
CL, total body clearance [8]: 51.7 L/h and 61.6 L/h and 41.6 L/h and 62.2 L/h and 68.1 L/h and 28.4 L/h and 73.2 L/h and 43.0 L/h and 45.2 L/h and 46.5 L/h and 47.8 L/h and 60.1 L/h
Cmax, peak free plasma concentration [8]: 2111 ng/mL and 4309 ng/mL and 1921 ng/mL and 2418 ng/mL and 5471 ng/mL and 4076 ng/mL and 3443 ng/mL and 2993 ng/mL and 3059 ng/mL and 3119 ng/mL and 4033 ng/mL and 2640 ng/mL
Fu, percentage of dose excreted unchanged in urine from 0 to 3 hours [8]: 33.8% and 36.5% and 43.5% and 26.6% and 49.6% and 73.4% and 44.4% and 46.0% and 39.5% and 40.4% and 35.1% and 34.0%
t1/2β, terminal half-life [8]: 2.077 h and 2.71 h and 3.385 h and 3.968 h and 1.42 h and 1.56 h and 1.903 h and 2.53 h and 1.875 h and 1.772 h and 1.6 h and 1.46 h
Peak plasma level ([9]; 4 subjects with detectable level (one 1.0 mg/kg, three 3.0 mg/kg oral), mean±SD, range 10-26): 17.8 ± 6.6 ng/mL
subjects with undetectable methylnaltrexone in plasma ([9]; of 12 subjects, oral 0.3-3.0 mg/kg): Eight
Peak plasma level ([10]; Day 1, 11 subjects, range 30-774): 162 ± 237 ng/mL
percentage of intravenous dose excreted unchanged in urine from 0 to 4 hr ([10]; Day 1, mean±SD, range 9.6-39.9): 23.7±10.5%
Peak plasma level ([10]; Day 2, 11 subjects, range 33-658): 166 ± 177 ng/mL
percentage of intravenous dose excreted unchanged in urine from 0 to 4 hr ([10]; Day 2, mean±SD, range 13.2-73.6): 37.6±17.8%
